“And” between values parts separate entries of the source, which are not always exact repeats. Identical values can stand only once.
Test system: 935938-334-R-J1-PDC complex spheroid viability
Experiment: Anticancer human tumor 935938-334-R-J1-PDC patient-derived small intestine adenocarcinoma cell line growth inhibition [POLQ]
Conditions: for viability, T/C: stronger effect = lower value
Method: Multicellular complex tumor spheroid response to Polymerase (POL) inhibitors (novobiocin, ART-558, RP6685) in combination with a variety of drugs and investigational agents in selected tumor cell lines
The POL inhibitors (novobiocin, ART-558, and RP6685) were evaluated both individually and in combination with standard of care and investigational anticancer small molecules within a complex spheroid model of solid tumors. . Complex spheroids include a stromal component modeled by human endothelial cells (HUVEC) and fibroblasts modeled by human mesenchymal stem cells (MSCs). The concentration ranges selected for each drug and investigational agent were based upon clinically achievable concentrations if the clinical Cmax of the agent was known.
Compounds. The drugs and investigational agents: novobiocin (NSC847541), ART-558 (NSC835418), RP-6685 (NSC848927), peposertib (NSC802822), ceralasertib (NSC780249), elimusertib (NSC800525), camonsertib (NSC841442), AZD-1390 (NSC803789), olaparib (NSC753686), talazoparib (NSC767125), rucaparib (NSC756644), sotorasib (NSC818433), MRTX-1133 (NSC836407), SN-38 (NSC673596), topotecan (NSC609699), epotoside (NSC141540), doxorubicin (NSC123127), gemcitabine (NSC613327), 5-fluorouracil (NSC19893), paclitaxel (NSC125973), vemurafenib (NSC761431), MSA-2 (NSC828583), SN-011 (NSC837082), adavosertib (NSC754352), prexasertib (NSC758257), carboplatin (NSC241240) and oxaliplatin (NSC266046), were obtained from the National Cancer Institute (NCI) Developmental Therapeutics Program Chemical Repository (21). The FDA-approved anticancer drug set is available from the Developmental Therapeutics Program at https://dtp.cancer.gov/organization/dscb/obtaining/. […] The stock solutions were prepared in dimethyl sulfoxide (DMSO, Sigma-Aldrich, St. Louis, MO, cat. D2650), except for the platinum compounds which were prepared in saline (Quality Biological, Gaithersburg, MD, cat. 114-055-101), at 800-fold the tested concentration and stored at -70 degrees C prior to their use. All drugs and investigational agents were tested over a range starting from a high concentration at or near the clinical Cmax and decreasing in half-log increments. If the clinical Cmax for an agent had not been determined, the highest concentration tested was 10 microM, except for SN-38, which was tested at a high concentration of 1 microM.
Cell Culture. All cells were maintained in an incubator at 37 degrees C and 5% CO2 with 95% humidity. The PDC lines were cultured according to standard operating procedures established by the NCI PDMR (https://pdmr.cancer.gov). Table 3 of the manuscript, lists the cell lines along with the number of the three cell types plated to form the mct-spheroids and media for tumor cell growth. After thawing, all PDC lines, except 997537-175-T-J1-PDC and 415267-285-R-J2-PDC, were cultured in Matrigel-coated flasks prepared with a working solution of 1X Ham's F-12 nutrient mix, without supplementation (Thermo Fisher Scientific, cat. 11765054), 100 U/mL penicillin-streptomycin (Thermo Fisher Scientific, cat. 15140122), and 2.5% Matrigel (Corning Inc., Corning, NY, cat. 354248) for the first three passages. The two PDC lines 997537-175-T-J1-PDC and 415267-285-R-J2-PDC were cultured on uncoated flasks. The 857933-349-R-J2-PDC line was cultured in 6C/Colon 1B media containing advanced DMEM/F-12 (Thermo Fisher Scientific, cat. 12634028), 10 mM HEPES (Thermo Fisher Scientific, cat. 15630080), 1X GlutaMAX supplement (Thermo Fisher Scientific, cat. 35050061), 0.1 mg/mL primocin (InvivoGen, San Diego, CA, cat. ant-pm-2), 10% defined fetal bovine serum, heat inactivated (HyClone Laboratories Inc., Logan, UT, cat. SH30070.03HI), 50% L-WRN conditioned media (ATCC, cat. CRL-3276), 1.25 mM N-Acetyl-L-cysteine (Sigma-Aldrich, cat. A9165), 10 mM nicotinamide (Sigma-Aldrich, cat. N0636), 1X B-27 supplement (Thermo Fisher Scientific, cat. 17504044), 1X N-2 supplement (Thermo Fisher Scientific, cat. […]

[1] = curve of first compound, second compound 0.0316 µM
[2] = curve of first compound, second compound 0.1 µM
[3] = curve of first compound, second compound 0.316 µM
[4] = curve of first compound, second compound 1 µM
[5] = curve of first compound, second compound 3.16 µM
[6] = curve of first compound, second compound 10 µM
[7] = second compound 0.0316 µM, first compound 0.0316 µM
[8] = second compound 0.0316 µM, first compound 0.1 µM
[9] = second compound 0.0316 µM, first compound 0.316 µM
[10] = second compound 0.0316 µM, first compound 1 µM
[11] = second compound 0.0316 µM, first compound 3.16 µM
[12] = second compound 0.0316 µM, first compound 10 µM
[13] = second compound 0.1 µM, first compound 0.0316 µM
[14] = second compound 0.1 µM, first compound 0.1 µM
[15] = second compound 0.1 µM, first compound 0.316 µM
[16] = second compound 0.1 µM, first compound 1 µM
[17] = second compound 0.1 µM, first compound 3.16 µM
[18] = second compound 0.1 µM, first compound 10 µM
[19] = second compound 0.316 µM, first compound 0.0316 µM
[20] = second compound 0.316 µM, first compound 0.1 µM
[21] = second compound 0.316 µM, first compound 0.316 µM
[22] = second compound 0.316 µM, first compound 1 µM
[23] = second compound 0.316 µM, first compound 3.16 µM
[24] = second compound 0.316 µM, first compound 10 µM
[25] = second compound 1 µM, first compound 0.0316 µM
[26] = second compound 1 µM, first compound 0.1 µM
[27] = second compound 1 µM, first compound 0.316 µM
[28] = second compound 1 µM, first compound 1 µM
[29] = second compound 1 µM, first compound 3.16 µM
[30] = second compound 1 µM, first compound 10 µM
[31] = second compound 3.16 µM, first compound 0.0316 µM
[32] = second compound 3.16 µM, first compound 0.1 µM
[33] = second compound 3.16 µM, first compound 0.316 µM
[34] = second compound 3.16 µM, first compound 1 µM
[35] = second compound 3.16 µM, first compound 3.16 µM
[36] = second compound 3.16 µM, first compound 10 µM
[37] = second compound 10 µM, first compound 0.0316 µM
[38] = second compound 10 µM, first compound 0.1 µM
[39] = second compound 10 µM, first compound 0.316 µM
[40] = second compound 10 µM, first compound 1 µM
[41] = second compound 10 µM, first compound 3.16 µM
[42] = second compound 10 µM, first compound 10 µM
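Note: spheroids exposed to drugs for seven days before viability read.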
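Throughout, for viability, T/C: 100% = DMSO vehicle control wells.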

With CCc1cc2c(N3CCc4c(cc(Cn5ccnc5)cc4-c4cn(C)nc4C(F)(F)F)C3=O)ccnc2c(OC)n1 + Cc1cccc(N(C)C(=O)C2C(O)CCN2c2nc(C)cc(C(F)(F)F)c2C#N)c1 the IC50 [1] was over 10 µM, the IC50 [2] was over 10 µM and the IC50 [3] was over 10 µM. The IC50 [4] was over 10 µM, the IC50 [5] was over 10 µM and the IC50 [6] was over 10 µM. It also gave a viability, T/C [7] of 69.1%, a viability, T/C [8] of 66.5% and a viability, T/C [9] of 68.8%. For the same compound, the viability, T/C [10] was 58.4%, the viability, T/C [11] was 69.4% and the viability, T/C [12] was 55.3%. The viability, T/C [13] was 74.5%, the viability, T/C [14] was 75% and the viability, T/C [15] was 63.2%. It also gave a viability, T/C [16] of 54.5%, a viability, T/C [17] of 60.6% and a viability, T/C [18] of 55.8%. It also gave a viability, T/C [19] of 61.5%, a viability, T/C [20] of 87.3% and a viability, T/C [21] of 64.2%. The viability, T/C [22] was 59.7%, the viability, T/C [23] was 69.5% and the viability, T/C [24] was 64.1%. For the same compound, the viability, T/C [25] was 98.3%, the viability, T/C [26] was 54.9% and the viability, T/C [27] was 58.3%. It also gave a viability, T/C [28] of 67.8%, a viability, T/C [29] of 65.8% and a viability, T/C [30] of 57.6%. The viability, T/C [31] was 78.3%, the viability, T/C [32] was 68.3% and the viability, T/C [33] was 67.9%. It also gave a viability, T/C [34] of 79%, a viability, T/C [35] of 71.8% and a viability, T/C [36] of 57.8%. The viability, T/C [37] was 95.5%, the viability, T/C [38] was 62.8% and the viability, T/C [39] was 81.6%. For the same compound, the viability, T/C [40] was 65.8%, the viability, T/C [41] was 61.2% and the viability, T/C [42] was 51.9%.
With CCc1c2c(nc3ccc(O)cc13)-c1cc3c(c(=O)n1C2)COC(=O)[C@]3(O)CC the viability, T/C (compound 0.00316 µM) was 59.3% and 81% and 86.5%, the viability, T/C (compound 0.01 µM) was 70.9% and 60% and 64% and the viability, T/C (compound 0.0316 µM) was 42.9% and 36.9% and 39.4%. The viability, T/C (compound 0.1 µM) was 31.1% and 30.2% and 33.9%, the viability, T/C (compound 0.316 µM) was 39.8% and 38.2% and 27.4% and the viability, T/C (compound 1 µM) was 35.2% and 33.7% and 25.6%. The IC50 (curve of compound) was 0.0219 µM and 0.0163 µM and 0.0201 µM.
For COc1cc(C2c3cc4c(cc3C(OC3OC5COC(C)OC5C(O)C3O)C3COC(=O)C23)OCO4)cc(OC)c1O (stereo not drawn), the viability, T/C (compound 0.0316 µM) was 108% and 93.2% and 99.1%, the viability, T/C (compound 0.1 µM) was 103% and 85.7% and 106% and the viability, T/C (compound 0.316 µM) was 61.8% and 90.5% and 72.3%. The viability, T/C (compound 1 µM) was 49.7% and 44.2% and 35.8%, the viability, T/C (compound 3.16 µM) was 28.1% and 26.1% and 27.6% and the viability, T/C (compound 10 µM) was 31.2% and 30.3% and 30.4%. The IC50 (curve of compound) was 0.707 µM and 0.864 µM and 0.621 µM.
With CC(C)n1c(=O)n(C)c2cnc3cc(F)c(-c4ccc(OCCCN5CCCCC5)nc4)cc3c21 + COC1C(OC(N)=O)C(O)C(Oc2ccc3c(O)c(NC(=O)c4ccc(O)c(CC=C(C)C)c4)c(=O)oc3c2C)OC1(C)C the IC50 [1] was over 10 µM, the IC50 [2] was over 10 µM and the IC50 [3] was over 10 µM. For the same compound, the IC50 [4] was over 10 µM, the IC50 [5] was over 10 µM and the IC50 [6] was over 10 µM. The viability, T/C [7] was 124%, the viability, T/C [8] was 124% and the viability, T/C [9] was 108%. The viability, T/C [10] was 95.4%, the viability, T/C [11] was 138% and the viability, T/C [12] was 133%. The viability, T/C [13] was 123%, the viability, T/C [14] was 109% and the viability, T/C [15] was 79%. It also gave a viability, T/C [16] of 135%, a viability, T/C [17] of 139% and a viability, T/C [18] of 92.8%. It also gave a viability, T/C [19] of 98%, a viability, T/C [20] of 105% and a viability, T/C [21] of 118%. It also gave a viability, T/C [22] of 119%, a viability, T/C [23] of 108% and a viability, T/C [24] of 85.2%. For the same compound, the viability, T/C [25] was 81.3%, the viability, T/C [26] was 117% and the viability, T/C [27] was 99.3%. For the same compound, the viability, T/C [28] was 113%, the viability, T/C [29] was 104% and the viability, T/C [30] was 120%. The viability, T/C [31] was 95%, the viability, T/C [32] was 115% and the viability, T/C [33] was 89.6%. It also gave a viability, T/C [34] of 117%, a viability, T/C [35] of 106% and a viability, T/C [36] of 90.3%. It also gave a viability, T/C [37] of 94.4%, a viability, T/C [38] of 135% and a viability, T/C [39] of 122%. The viability, T/C [40] was 160%, the viability, T/C [41] was 133% and the viability, T/C [42] was 101%.

From PubChem BioAssay AID1963829 (Molecular Pharmacology Branch, DTP, NCI, 2024)
